Data published in ChEMBL document CHEMBL1933055, “Discovery of bacterial NAD⁺-dependent DNA ligase inhibitors: improvements in clearance of adenosine series” (Bioorg Med Chem Lett, 2012).
≈ marks a conversion by molar mass, not a printed value.

Columns and labels:
[1] = Renal clearance in iv dosed rat; format: ADME, organism-based, Kidney; settings: in vivo
Streptococcus pneumoniae [2] = assay: Antibacterial activity against Streptococcus pneumoniae; format: functional
[3] = Total clearance in iv dosed rat; format: ADME, organism-based; settings: in vivo
[4] = Plasma clearance in rat at 3 mg/kg, iv; format: ADME, organism-based; set-up: dose 3 mg/kg, route intravenous
Streptococcus pneumoniae [5] = assay: Antimicrobial activity against Streptococcus pneumoniae D39; format: functional
[6] = Lipophilicity, log D of the compound; settings: octanol/water
Canis familiaris = assay: Hepatic blood flow in iv dosed dog; format: ADME, organism-based, Canis lupus familiaris, Liver; settings: in vivo
[7] = Solubility of the compound; format: physicochemical
[8] = Fraction unbound in human plasma; format: ADME, cell-free
[9] = Oral bioavailability in dog; format: ADME, organism-based, Canis lupus familiaris; settings: in vivo
[10] = Oral bioavailability in rat; format: ADME, organism-based; settings: in vivo
Rattus norvegicus = assay: Hepatic blood flow in iv dosed rat; format: ADME, organism-based, Liver; settings: in vivo
[11] = Clearance in iv dosed dog; format: ADME, organism-based, Canis lupus familiaris; settings: in vivo

| CL renal [1] [mL/min/kg] | MIC (Streptococcus pneumoniae [2]) [µg/mL] | clearance [3] [mL/min/kg] | clearance [4] [mL/min/kg] | MIC (Streptococcus pneumoniae [5]) [µg/mL] | logD [6] | Structure (SMILES) | other results |
| --- | --- | --- | --- | --- | --- | --- | --- |
| 11 | 4 (≈ 11.3 µM) | 115 | – | – | – | CC1CC1COc1nc(N)c2ncn([C@@H]3O[C@H](CF)[C@@H](O)[C@H]3O)c2n1 (some centres not stated) | – |
| – | – | – | 43 | 2 (≈ 5.96 µM) | – | C[C@H]1O[C@@H](n2cnc3c(N)nc(OC4CCCC4)nc32)[C@H](O)[C@@H]1O | – |
| 13 | 16 (≈ 47.4 µM) | 67 | – | – | -0.06 | C[C@H]1O[C@@H](n2cnc3c(N)nc(OC4CCOC4)nc32)[C@H](O)[C@@H]1O (some centres not stated) | – |
| 2 | 2 (≈ 4.79 µM) | 27 | – | – | 2.2 | C[C@H]1O[C@@H](n2cnc3c(N)nc(O[C@H]4CC[C@H](C(F)(F)F)CC4)nc32)[C@H](O)[C@@H]1O | QH (Canis familiaris): 20%; solubility [7]: 800 µM (≈ 334 µg/mL); fraction unbound [8]: 0.2; bioavailability [9]: 88%; bioavailability [10]: 86%; QH (Rattus norvegicus): 39%; clearance [11]: 7.7 mL/min/kg |
| 13 | 8 (≈ 23.6 µM) | 49 | – | – | – | Nc1nc(OCC2CC2)nc2c1ncn2[C@@H]1O[C@H](CF)[C@@H](O)[C@H]1O | – |
| 15 | 8 (≈ 20.8 µM) | 33 | – | – | – | C[C@H]1O[C@@H](n2cnc3c(N)nc(OC4CCC(F)(F)CC4)nc32)[C@H](O)[C@@H]1O | – |
| – | – | – | 50 | 2 (≈ 5.76 µM) | – | C[C@H]1O[C@@H](n2cnc3c(N)nc(OC4C[C@@H]5C[C@@H]5C4)nc32)[C@H](O)[C@@H]1O (some centres not stated) | – |
| – | – | – | 89 | 1 (≈ 2.75 µM) | – | C[C@H]1O[C@@H](n2cnc3c(N)nc(O[C@H]4CC[C@H](C)CC4)nc32)[C@H](O)[C@@H]1O | – |
| 16 | 16 (≈ 40.7 µM) | 23 | – | – | 1.3 | C[C@H]1O[C@@H](n2cnc3c(N)nc(OC4CC(F)(F)C4(F)F)nc32)[C@H](O)[C@@H]1O (some centres not stated) | – |
| – | – | – | 73 | 2 (≈ 5.66 µM) | – | Nc1nc(OCC2CCC2)nc2c1ncn2[C@@H]1O[C@H](CF)[C@@H](O)[C@H]1O | – |
| – | – | – | 96 | 1 (≈ 2.88 µM) | – | C[C@H]1O[C@@H](n2cnc3c(N)nc(OCC4CC45CC5)nc32)[C@H](O)[C@@H]1O (some centres not stated) | – |
| 5 | 8 (≈ 20.5 µM) | 73 | – | – | 1.8 | C[C@H]1O[C@@H](n2cnc3c(N)nc(OC(C4CC4)C(F)(F)F)nc32)[C@H](O)[C@@H]1O (some centres not stated) | – |
| – | – | – | 83 | 4 (≈ 11.3 µM) | – | Nc1nc(OC2CCCC2)nc2c1ncn2[C@@H]1O[C@H](CF)[C@@H](O)[C@H]1O | – |
| 8 | 16 (≈ 40.1 µM) | 58 | – | – | 1.7 | C[C@H]1O[C@@H](n2cnc3c(N)nc(OCC4CCC(F)(F)CC4)nc32)[C@H](O)[C@@H]1O | – |
| 17 | 4 (≈ 9.82 µM) | 85 | – | – | 1.4 | C[C@H]1O[C@@H](n2cnc3c(N)nc(OCC4CC(F)(F)C4(F)F)nc32)[C@H](O)[C@@H]1O (some centres not stated) | – |
